Assay results from patent US20220228172A1 (priority 2019, published 2022).
“Also recorded” adds a separate entry of the source.

Columns and labels:
Assay type in all cases: cell-based, vesicular stomatitis virus
[1] = tested on: VSV-L-Prot
[2] = tested on: VSV-GP-Luc-IL12-Prot-Off
[3] = tested on: VSV-GFP-Prot-L (VSV-Prot-Off)
[4] = tested on: VSV-GP-IL12-Prot-Off
[5] = tested on: VSV-P-prot
[6] = tested on: VSV-P-prot; remark: listed apart in the source
[7] = tested on: VSV-ΔP-RFP
[8] = tested on: VSV-L-Prot; remark: listed apart in the source
[9] = tested on: standard recombinant VSV without P-prot control mechanism
[10] = tested on: VSV-GP-TM-IL12-Prot-Off
[11] = tested on: VSV-GP-IL12

CC(C)(C)NC(=O)[C@@H]1C[C@@H]2CCCC[C@@H]2CN1C[C@@H](O)[C@H](Cc1ccccc1)NC(=O)[C@H](CC(N)=O)NC(=O)c1ccc2ccccc2n1 [saquinavir]
VSV-L-Prot replication in presence of protease inhibitor [1]: replicates to high titers in its presence
IL12 expression in supernatant (ELISA) [2]: inversely correlated
inhibition of VSV-GFP-Prot-L replication [3]: even stronger inhibition of virus replication than amprenavir; also recorded: strongest suppression of viral replication
virus titer of VSV-GP-IL12-Prot-Off with and without linker [4]: dependent on the presence and concentration; also recorded: inversely correlated
viral gene expression (GFP signal) of VSV-P-prot [5]: facilitated
viral replication (plaque formation) of VSV-P-prot [5]: facilitated

CC(C)CN(C[C@@H](O)[C@H](Cc1ccccc1)NC(=O)O[C@H]1CCOC1)S(=O)(=O)c1ccc(N)cc1 [amprenavir]
VSV-P-prot activity at doses above the plateau [6]: deteriorated at higher doses
amprenavir dose at which VSV-P-prot activity started [6]: 100 nM
VSV-L-Prot replication in presence of protease inhibitor [1]: replicates to high titers in its presence
APV dose at which VSV-Prot-OFF activity started to decrease [3]: 30 nM
amprenavir concentration at which VSV-GFP-Prot-L activity started to decline [3]: 1 µM
amprenavir concentrations at which VSV-GFP-Prot-L activity was high [3]: 0 to 300 nM
effect on VSV-GFP-Prot-L activity (GFP expression, plaque assays) [3]: stop of virus activity
RFP signal in VSV-ΔP-RFP infected cells [7]: only detectable in the presence of P196PR2 and a specific HIV protease inhibitor
amprenavir dose at which VSV-L-prot activity started [8]: 100 nM
amprenavir dose of maximum VSV-L-prot activity [8]: 30 µM
viral gene expression (GFP signal) of VSV-P-prot [5]: strong GFP signal within 24 hours in the presence but not in the absence
viral replication (plaque formation) of VSV-P-prot [5]: protease inhibitor-dependent
effect of amprenavir on viral replication of standard recombinant VSV [9]: not affected

Cc1cccc(C)c1OCC(=O)N[C@@H](Cc1ccccc1)[C@@H](O)C[C@H](Cc1ccccc1)NC(=O)[C@H](C(C)C)N1CCCNC1=O [lopinavir]
regulation of VSV-P-prot (data not shown) ([5]; 10 μM): shown to regulate VSV-P-prot

COC(=O)N[C@H](C(=O)N[C@@H](Cc1ccccc1)[C@@H](O)CN(Cc1ccc(-c2ccccn2)cc1)NC(=O)[C@@H](NC(=O)OC)C(C)(C)C)C(C)(C)C [atazanavir]
virus titer of VSV-GP-TM-IL12-Prot-Off (-w/ol, -fl) [10]: inversely correlated
virus titer of VSV-GP-Luc-IL12-Prot-Off with and without linker [2]: inversely correlated
virus titer of VSV-GP-IL12 [11]: uneffected

CC(C)(C)NC(=O)[C@@H]1CN(Cc2cccnc2)CCN1C[C@@H](O)C[C@@H](Cc1ccccc1)C(=O)N[C@H]1c2ccccc2C[C@H]1O [indinavir]
VSV-L-Prot replication in presence of protease inhibitor [1]: replicates to high titers in its presence
viral gene expression (GFP signal) of VSV-P-prot [5]: facilitated
viral replication (plaque formation) of VSV-P-prot [5]: facilitated
